Test results from PubChem BioAssay AID1963828 (Molecular Pharmacology Branch, DTP, NCI, 2024).

Test system: 991263-137-R1-J2-PDC complex spheroid viability
Assay: Anticancer human tumor 991263-137-R1-J2-PDC patient-derived colon adenocarcinoma cell line growth inhibition [POLQ]
Settings: for IC50: curve of first compound; for viability, T/C: stronger effect = lower value
Procedure, shortened: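 Growth inhibition in 3D: complex spheroids (tumor PDC, HUVEC, MSC) treated with POLQ inhibitor combinations; where Cmax unknown, highest tested concentration 10 microM, except SN-38 at 1 microM.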

[1] = second compound 0.0316 µM, first compound 0.0316 µM
[2] = second compound 0.0316 µM, first compound 0.1 µM
[3] = second compound 0.0316 µM, first compound 0.316 µM
[4] = second compound 0.0316 µM, first compound 1 µM
[5] = second compound 0.0316 µM, first compound 3.16 µM
[6] = second compound 0.0316 µM, first compound 10 µM
[7] = second compound 0.1 µM, first compound 0.0316 µM
[8] = second compound 0.1 µM, first compound 0.1 µM
[9] = second compound 0.1 µM, first compound 0.316 µM
[10] = second compound 0.1 µM, first compound 1 µM
[11] = second compound 0.1 µM, first compound 3.16 µM
[12] = second compound 0.1 µM, first compound 10 µM
[13] = second compound 0.316 µM, first compound 0.0316 µM
[14] = second compound 0.316 µM, first compound 0.1 µM
[15] = second compound 0.316 µM, first compound 0.316 µM
[16] = second compound 0.316 µM, first compound 1 µM
[17] = second compound 0.316 µM, first compound 3.16 µM
[18] = second compound 0.316 µM, first compound 10 µM
[19] = second compound 1 µM, first compound 0.0316 µM
[20] = second compound 1 µM, first compound 0.1 µM
[21] = second compound 1 µM, first compound 0.316 µM
[22] = second compound 1 µM, first compound 1 µM
[23] = second compound 1 µM, first compound 3.16 µM
[24] = second compound 1 µM, first compound 10 µM
[25] = second compound 3.16 µM, first compound 0.0316 µM
[26] = second compound 3.16 µM, first compound 0.1 µM
[27] = second compound 3.16 µM, first compound 0.316 µM
[28] = second compound 3.16 µM, first compound 1 µM
[29] = second compound 3.16 µM, first compound 3.16 µM
[30] = second compound 3.16 µM, first compound 10 µM
[31] = second compound 10 µM, first compound 0.0316 µM
[32] = second compound 10 µM, first compound 0.1 µM
[33] = second compound 10 µM, first compound 0.316 µM
[34] = second compound 10 µM, first compound 1 µM
[35] = second compound 10 µM, first compound 3.16 µM
[36] = second compound 10 µM, first compound 10 µM
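Also: spheroids exposed to compounds for 7 days before readout.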
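For viability, T/C in this document: 100% = DMSO vehicle control viability.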

Work on `CC1COCCN1c1cc(C2(O)CC3CCC(C2)O3)c2cnn(-c3ccn[nH]3)c2n1` (stereo unspecified) + COC1C(OC(N)=O)C(O)C(Oc2ccc3c(O)c(NC(=O)c4ccc(O)c(CC=C(C)C)c4)c(=O)oc3c2C)OC1(C)C yielded an IC50 (second compound 0.0316 µM) of 1.46 µM, an IC50 (second compound 0.1 µM) of 1.93 µM and an IC50 (second compound 0.316 µM) of 0.947 µM. It also gave an IC50 (second compound 1 µM) of 1.58 µM, an IC50 (second compound 3.16 µM) of 1.87 µM and an IC50 (second compound 10 µM) of 1.45 µM. The viability, T/C [1] was 85.5%, the viability, T/C [2] was 95.5% and the viability, T/C [3] was 81.5%. It also gave a viability, T/C [4] of 58.6%, a viability, T/C [5] of 33.2% and a viability, T/C [6] of 29.4%. For the same compound, the viability, T/C [7] was 102%, the viability, T/C [8] was 95.3% and the viability, T/C [9] was 80.4%. For the same compound, the viability, T/C [10] was 64.8%, the viability, T/C [11] was 39% and the viability, T/C [12] was 25%. It also gave a viability, T/C [13] of 106%, a viability, T/C [14] of 100% and a viability, T/C [15] of 78.9%. The viability, T/C [16] was 50.5%, the viability, T/C [17] was 26.5% and the viability, T/C [18] was 26.1%. It also gave a viability, T/C [19] of 104%, a viability, T/C [20] of 106% and a viability, T/C [21] of 85.7%. The viability, T/C [22] was 59.8%, the viability, T/C [23] was 36.2% and the viability, T/C [24] was 23.7%. For the same compound, the viability, T/C [25] was 89.8%, the viability, T/C [26] was 76.4% and the viability, T/C [27] was 73.9%. For the same compound, the viability, T/C [28] was 56.1%, the viability, T/C [29] was 46% and the viability, T/C [30] was 21.6%. For the same compound, the viability, T/C [31] was 84.7%, the viability, T/C [32] was 95.8% and the viability, T/C [33] was 74.3%. The viability, T/C [34] was 56.4%, the viability, T/C [35] was 36.7% and the viability, T/C [36] was 21.2%.
`CC(=O)O[C@H]1C(=O)[C@@]2(C)[C@H]([C@H](OC(=O)c3ccccc3)[C@]3(O)C[C@H](OC(=O)[C@H](O)[C@@H](NC(=O)c4ccccc4)c4ccccc4)C(C)=C1C3(C)C)[C@]1(OC(C)=O)CO[C@@H]1C[C@@H]2O` + Cc1cccc(N(C)C(=O)C2C(O)CCN2c2nc(C)cc(C(F)(F)F)c2C#N)c1 was tested, and the IC50 (second compound 0.0316 µM) was 1.36 µM, the IC50 (second compound 0.1 µM) was 1.83 µM and the IC50 (second compound 0.316 µM) was 1.04 µM. The IC50 (second compound 1 µM) was 0.825 µM, the IC50 (second compound 3.16 µM) was 1.51 µM and the IC50 (second compound 10 µM) was 0.295 µM. It also gave a viability, T/C (second compound 0.0316 µM, first compound 0.00949 µM) of 80.4%, a viability, T/C (second compound 0.0316 µM, first compound 0.03 µM) of 85.6% and a viability, T/C (second compound 0.0316 µM, first compound 0.0949 µM) of 85.2%. The viability, T/C (second compound 0.0316 µM, first compound 0.3 µM) was 67.5%, the viability, T/C (second compound 0.0316 µM, first compound 0.949 µM) was 53.2% and the viability, T/C (second compound 0.0316 µM, first compound 3 µM) was 46.1%. For the same compound, the viability, T/C (second compound 0.1 µM, first compound 0.00949 µM) was 93.4%, the viability, T/C (second compound 0.1 µM, first compound 0.03 µM) was 92.5% and the viability, T/C (second compound 0.1 µM, first compound 0.0949 µM) was 84.2%. It also gave a viability, T/C (second compound 0.1 µM, first compound 0.3 µM) of 74%, a viability, T/C (second compound 0.1 µM, first compound 0.949 µM) of 57.9% and a viability, T/C (second compound 0.1 µM, first compound 3 µM) of 44%. For the same compound, the viability, T/C (second compound 0.316 µM, first compound 0.00949 µM) was 85.8%, the viability, T/C (second compound 0.316 µM, first compound 0.03 µM) was 86.3% and the viability, T/C (second compound 0.316 µM, first compound 0.0949 µM) was 83.4%. For the same compound, the viability, T/C (second compound 0.316 µM, first compound 0.3 µM) was 74.1%, the viability, T/C (second compound 0.316 µM, first compound 0.949 µM) was 50.1% and the viability, T/C (second compound 0.316 µM, first compound 3 µM) was 46.1%. It also gave a viability, T/C (second compound 1 µM, first compound 0.00949 µM) of 82.6%, a viability, T/C (second compound 1 µM, first compound 0.03 µM) of 89.2% and a viability, T/C (second compound 1 µM, first compound 0.0949 µM) of 85%. The viability, T/C (second compound 1 µM, first compound 0.3 µM) was 63.2%, the viability, T/C (second compound 1 µM, first compound 0.949 µM) was 51.3% and the viability, T/C (second compound 1 µM, first compound 3 µM) was 42.8%. It also gave a viability, T/C (second compound 3.16 µM, first compound 0.00949 µM) of 87.3%, a viability, T/C (second compound 3.16 µM, first compound 0.03 µM) of 79.5% and a viability, T/C (second compound 3.16 µM, first compound 0.0949 µM) of 80.7%. It also gave a viability, T/C (second compound 3.16 µM, first compound 0.3 µM) of 63.8%, a viability, T/C (second compound 3.16 µM, first compound 0.949 µM) of 56% and a viability, T/C (second compound 3.16 µM, first compound 3 µM) of 42.1%. It also gave a viability, T/C (second compound 10 µM, first compound 0.00949 µM) of 79.9%, a viability, T/C (second compound 10 µM, first compound 0.03 µM) of 88.4% and a viability, T/C (second compound 10 µM, first compound 0.0949 µM) of 69.5%. It also gave a viability, T/C (second compound 10 µM, first compound 0.3 µM) of 51.6%, a viability, T/C (second compound 10 µM, first compound 0.949 µM) of 50.7% and a viability, T/C (second compound 10 µM, first compound 3 µM) of 46.7%.
`COc1cc2cc(C(=O)CCC(=O)O)sc2cc1OC` + Cc1cccc(N(C)C(=O)C2C(O)CCN2c2nc(C)cc(C(F)(F)F)c2C#N)c1 was tested, and the IC50 (second compound 0.0316 µM) was over 10 µM, the IC50 (second compound 0.1 µM) was over 10 µM and the IC50 (second compound 0.316 µM) was over 10 µM. For the same compound, the IC50 (second compound 1 µM) was over 10 µM, the IC50 (second compound 3.16 µM) was over 10 µM and the IC50 (second compound 10 µM) was over 10 µM. For the same compound, the viability, T/C [1] was 100%, the viability, T/C [2] was 103% and the viability, T/C [3] was 99.8%. For the same compound, the viability, T/C [4] was 95.8%, the viability, T/C [5] was 102% and the viability, T/C [6] was 81.8%. It also gave a viability, T/C [7] of 91.5%, a viability, T/C [8] of 88.8% and a viability, T/C [9] of 95.4%. The viability, T/C [10] was 93.6%, the viability, T/C [11] was 95.7% and the viability, T/C [12] was 77%. It also gave a viability, T/C [13] of 102%, a viability, T/C [14] of 92.8% and a viability, T/C [15] of 101%. It also gave a viability, T/C [16] of 102%, a viability, T/C [17] of 97.4% and a viability, T/C [18] of 71.2%. It also gave a viability, T/C [19] of 91.2%, a viability, T/C [20] of 103% and a viability, T/C [21] of 91.5%. For the same compound, the viability, T/C [22] was 88%, the viability, T/C [23] was 108% and the viability, T/C [24] was 74.2%. It also gave a viability, T/C [25] of 87.8%, a viability, T/C [26] of 94.1% and a viability, T/C [27] of 90.3%. For the same compound, the viability, T/C [28] was 110%, the viability, T/C [29] was 87.2% and the viability, T/C [30] was 80%. For the same compound, the viability, T/C [31] was 86%, the viability, T/C [32] was 97.5% and the viability, T/C [33] was 97.9%. For the same compound, the viability, T/C [34] was 101%, the viability, T/C [35] was 102% and the viability, T/C [36] was 81%.
